This is an account of results in paper PMC5214846 (Structure (London, England : 1993), 2016).

Data set [1] deals with T1, ELIC (Dickeya chrysanthemi, UniProt P0C7B7). The conditions noted are these: cited from earlier work.
In the next data set the test system is ELIC-α1β3GABAAR. It is filed as cell-based. The conditions noted are these: for Modulation of ELIC-α1β3GABAAR at EC20: agonist EC20.
For data set [2], the target named is T1, ELIC. The data set can be described thus: Functional measurements of Xenopus laevis oocytes expressing ELIC. The conditions noted are these: for Modulation of ELIC at low agonist concentration (EC3) / Modulation of ELIC at EC20: representative traces; for Modulation of ELIC at EC20: agonist EC20.
The nature of data set [3]: Highest soluble concentration of long-chain alcohols.

Read-outs that look alike come from different tables or passages of the source.

T1 sequence (P0C7B7 whole entry): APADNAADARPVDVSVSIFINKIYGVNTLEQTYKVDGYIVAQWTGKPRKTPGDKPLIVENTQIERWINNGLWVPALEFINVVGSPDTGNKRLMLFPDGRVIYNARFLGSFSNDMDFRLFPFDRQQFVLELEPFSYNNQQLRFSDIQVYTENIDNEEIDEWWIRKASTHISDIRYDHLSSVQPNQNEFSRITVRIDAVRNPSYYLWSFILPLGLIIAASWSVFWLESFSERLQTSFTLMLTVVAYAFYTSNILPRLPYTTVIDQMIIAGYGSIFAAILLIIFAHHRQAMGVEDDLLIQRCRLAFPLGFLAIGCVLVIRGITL

For `FC(F)OC(Cl)C(F)(F)F` (stereo not drawn) [isoflurane], at ELIC [1] (binding to the pore at 6′ and 13′ positions, ref Chen et al., 2015), the “Effect on ELIC” value is listed as “inhibits”.

Turning to `CC(C)c1cccc(C(C)C)c1O` [propofol], the “Effect on ELIC” value on ELIC [1] (through a common TMD intra-subunit binding pocket, ref Kinde et al., 2016) is “inhibit”.

`OCCBr` [BrEtOH, 2-bromoethanol]: in the data set on ELIC-α1β3GABAAR, the “Modulation of ELIC-α1β3GABAAR at low agonist concentration (EC3)” value is given as “potentiate” and the “Modulation of ELIC-α1β3GABAAR at EC20” value is reported as “some potentiation”. On ELIC [2], the “Modulation of ELIC at low agonist concentration (EC3)” value is “inhibition” and the “Modulation of ELIC at EC20” value is “strongly inhibit”.

Take `CCO` [EtOH, ethanol]: in the data set on ELIC-α1β3GABAAR, the “Modulation of ELIC-α1β3GABAAR at low agonist concentration (EC3)” value is reported as “potentiate” and the “Modulation of ELIC-α1β3GABAAR at EC20” value is reported as “no inhibition”. In addition, on ELIC [2], the “Modulation of ELIC at low agonist concentration (EC3)” value was “inhibition” and the “Modulation of ELIC at EC20” value is reported as “strongly inhibit”.

As to `CCCCCCCCCCO` [n-decanol], the Highest soluble concentration in data set [3] is listed as ~ 0.3 mM. Also, the “Inhibition of ELIC at highest soluble concentration” value at ELIC [2] (n-decanol ~0.3 mM, n-dodecanol ~0.02 mM, PPA-elicited current) is on record as “much weaker inhibition than n-nonanol or n-hexanol”.
